Laboratory results taken from ChEMBL document CHEMBL1201862, “PubChem BioAssay data set” (2004).
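Values below derive from 48-hour exposures of cells grown in 96-well plates, with endpoints linearly interpolated between the two concentrations bracketing the appropriate inhibition level. Here, GI50 denotes the concentration required for 50% inhibition of growth.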 Activity calls are given as the source filed them. Cut-off read from the data, not from the text of the source: active = GI50 up to about 1.1 µM and inactive = higher.

Legend:
Assay in all cases: NCI anticancer screen, dose series, 48 h
NCI-H460 = system: NCI-H460
UACC-257 = system: UACC-257
Malme-3M = system: Malme-3M
KM12 = system: KM12
OVCAR-3 = system: OVCAR-3
KM-20L2 = system: KM-20L2
COLO 205 = system: COLO 205
M14 = system: M14
ACHN = system: ACHN
A549 = system: A549
DMS-273 = system: DMS-273
SK-MEL-2 = system: SK-MEL-2
RPMI-8226 = system: RPMI-8226
SN12C = system: SN12C
UO-31 = system: UO-31
NCI-H23 = system: NCI-H23
XF498 = system: XF498
SNB-19 = system: SNB-19
IGROV-1 = system: IGROV-1
M19-MEL = system: M19-MEL
UACC-62 = system: UACC-62
K562 = system: K562
SF-539 = system: SF-539
DLD-1 = system: DLD-1
CCRF-CEM = system: CCRF-CEM
RXF 393 = system: RXF 393
OVCAR-5 = system: OVCAR-5
SF-268 = system: SF-268
A498 = system: A498
OVCAR-4 = system: OVCAR-4
HCT-15 = system: HCT-15
SK-MEL-28 = system: SK-MEL-28
HOP-18 = system: HOP-18
SK-OV-3 = system: SK-OV-3
HCC 2998 = system: HCC 2998
SNB-75 = system: SNB-75
SW-620 = system: SW-620
MOLT-4 = system: MOLT-4
HT-29 = system: HT-29
LOX IMVI = system: LOX IMVI
TK-10 = system: TK-10
CAKI-1 = system: CAKI-1
EKVX = system: EKVX
HL-60 = system: HL-60
U-251 = system: U-251
NCI-H522 = system: NCI-H522
786-0 = system: 786-0
LXFL 529 = system: LXFL 529
SK-MEL-5 = system: SK-MEL-5
SF-295 = system: SF-295
HOP-92 = system: HOP-92
OVCAR-8 = system: OVCAR-8

In the case of `O=C(O)CCNS(=O)(=O)c1ccc(NC(=O)c2ccccc2)cc1`, the GI50 (NCI-H460) is reported as > 100 µM (inactive), the GI50 (UACC-257) is reported as > 100 µM (inactive) and the GI50 (Malme-3M) is reported as > 100 µM (inactive). For the same molecule, the GI50 (KM12) was > 100 µM (inactive), the GI50 (OVCAR-3) was > 100 µM (inactive) and the GI50 (KM-20L2) was > 100 µM (inactive). For the same molecule, the GI50 (COLO 205) was > 100 µM (inactive), the GI50 (M14) was > 100 µM (inactive) and the GI50 (ACHN) was > 100 µM (inactive). For the same molecule, the GI50 (A549) was > 100 µM (inactive), the GI50 (DMS-273) was > 100 µM (inactive) and the GI50 (SK-MEL-2) was > 100 µM (inactive). For the same molecule, the GI50 (RPMI-8226) was > 100 µM (inactive), the GI50 (SN12C) was > 100 µM (inactive) and the GI50 (UO-31) was > 100 µM (inactive). The GI50 (NCI-H23) was > 100 µM (inactive), the GI50 (XF498) was > 100 µM (inactive) and the GI50 (SNB-19) was > 100 µM (inactive). For the same molecule, the GI50 (IGROV-1) was > 100 µM (inactive), the GI50 (M19-MEL) was > 100 µM (inactive) and the GI50 (UACC-62) was > 100 µM (inactive). The GI50 (K562) was > 100 µM (inactive), the GI50 (SF-539) was > 100 µM (inactive) and the GI50 (DLD-1) was > 100 µM (inactive). The GI50 (CCRF-CEM) was > 100 µM (inactive), the GI50 (RXF 393) was > 100 µM (inactive) and the GI50 (OVCAR-5) was > 100 µM (inactive). For the same molecule, the GI50 (SF-268) was > 100 µM (inactive), the GI50 (A498) was > 100 µM (inactive) and the GI50 (OVCAR-4) was > 100 µM (inactive). The GI50 (HCT-15) was over 100 µM, the GI50 (SK-MEL-28) was > 100 µM (inactive) and the GI50 (HOP-18) was > 100 µM (inactive). The GI50 (SK-OV-3) was > 100 µM (inactive), the GI50 (HCC 2998) was > 100 µM (inactive) and the GI50 (SNB-75) was > 100 µM (inactive). The GI50 (SW-620) was > 100 µM (inactive), the GI50 (MOLT-4) was > 100 µM (inactive) and the GI50 (HT-29) was > 100 µM (inactive). The GI50 (LOX IMVI) was > 100 µM (inactive), the GI50 (TK-10) was > 100 µM (inactive) and the GI50 (CAKI-1) was > 100 µM (inactive). The GI50 (EKVX) was > 100 µM (inactive), the GI50 (HL-60) was > 100 µM (inactive) and the GI50 (U-251) was > 100 µM (inactive). The GI50 (NCI-H522) was > 100 µM (inactive), the GI50 (786-0) was > 100 µM (inactive) and the GI50 (LXFL 529) was > 100 µM (inactive). For the same molecule, the GI50 (SK-MEL-5) was > 100 µM (inactive), the GI50 (SF-295) was > 100 µM (inactive) and the GI50 (HOP-92) was > 100 µM (inactive). For the same molecule, the GI50 (OVCAR-8) was > 100 µM (inactive).
